Test results: ChEMBL document CHEMBL1201862, “PubChem BioAssay data set” (2004)
Activity calls are given as the source filed them. Cut-off read from the data, not from the text of the source, for most assays here: actives have a measured EC50 and inactives only a lower limit.

Experiments:
[1] = luciferase reporter signal reduction – luminescence, H4-C neuroglioblastoma cells, dose response (AID 2458); assay type: functional, cell-based;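 note: H4 neuroglioblastoma cells stably carrying a luciferase reporter gene fusion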
[2] = inhibitors of SNCA 5'UTR-driven translation, confirmation, luminescence, H4 neuroglioblastoma cells, dose confirmation (AID 2454); assay type: functional, cell-based;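 note: H4 neuroglioblastoma cells carrying an alpha-synuclein 5'UTR luciferase reporter; potency for inhibition of the luciferase signal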
[3] = test system: BJ; test: cytotoxicity toward BJ-TERT fibroblasts, dose response, cell-based, RAS-independent, luminescence (AID 1933); assay type: functional; conditions: Homo sapiens
[4] = cells; assay type: functional, cell-based
[5] = inhibitors of intracellular T. cruzi replication, confirmation, NIH3T3 host cells, beta-gal luminescence (AID 2044); assay type: functional, cell-based;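 note: intracellular parasites grown in NIH/3T3 mouse fibroblasts as host cells; luminescent beta-galactosidase reporter signal from transgenic T. cruzi replicating inside host cells; inhibitors lower the luminescence signal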
[6] = cytotoxicity toward NIH3T3 fibroblasts, dose response, counter-screen, cell-based, ATP luminescence, mouse fibroblasts (AID 2010); assay type: functional;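 note: cells exposed to compound for about 90 hours before reading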
[7] = cytotoxicity toward DRD oncogenic fibroblasts, dose response, cell-based, non-viral oncogenic, luminescence (AID 1934); assay type: functional; conditions: Homo sapiens
[8] = Luminescence Cell-Based Dose Response HTS to Identify Inhibitors of 5'UTR Stem-Loop Driven Prion Protein mRNA Translation in H4 Neuroglioblastoma Cells. [Related pubchem assays: 1827 (Project Summary), 1813 (Primary HTS)]; assay type: functional
[9] = inhibitors of firefly luciferase expression or activity, dose response, H4 neuroglioma cells, luminescence (AID 1990); assay type: functional, cell-based
[10] = test system: BJ; test: cells; assay type: functional, cell-based; conditions: Homo sapiens
[11] = inhibitors of SNCA 5'UTR-driven reporter translation, confirmation, H4 neuroglioma cells, luminescence (AID 1988); assay type: functional, cell-based
[12] = test system: BJ; test: cytotoxicity toward BJ-TERT-LT-ST fibroblasts, dose response, cell-based, RAS-independent, luminescence (AID 1935); assay type: functional; conditions: Homo sapiens;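 note: BJ fibroblasts immortalized with TERT plus LT and ST oncogenes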
[13] = molecular target: FAD-linked sulfhydryl oxidase ALR (Homo sapiens, UniProt P55789); test: inhibitors of human ALR sulfhydryl oxidase, dose response, biochemical, H2O2 detection, luminescence, cherry-pick (AID 493248)
FAD-linked sulfhydryl oxidase ALR, sequence (P55789 whole entry): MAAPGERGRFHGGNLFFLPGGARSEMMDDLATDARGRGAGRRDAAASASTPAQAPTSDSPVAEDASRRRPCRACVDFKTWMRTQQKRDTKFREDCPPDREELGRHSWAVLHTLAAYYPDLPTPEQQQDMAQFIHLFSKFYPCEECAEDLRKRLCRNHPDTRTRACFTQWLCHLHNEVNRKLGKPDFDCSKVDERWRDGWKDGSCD

[14] = molecular target: Eukaryotic translation initiation factor 4E (Mus musculus, UniProt P63073); test: eIF4E–eIF4G protein interaction inhibitors, dose response, biochemical, TR-FRET (AID 855); assay type: functional;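 note: potency for disrupting eIF4E binding to eIF4GI seen as loss of FRET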
Eukaryotic translation initiation factor 4E, sequence (P63073 whole entry): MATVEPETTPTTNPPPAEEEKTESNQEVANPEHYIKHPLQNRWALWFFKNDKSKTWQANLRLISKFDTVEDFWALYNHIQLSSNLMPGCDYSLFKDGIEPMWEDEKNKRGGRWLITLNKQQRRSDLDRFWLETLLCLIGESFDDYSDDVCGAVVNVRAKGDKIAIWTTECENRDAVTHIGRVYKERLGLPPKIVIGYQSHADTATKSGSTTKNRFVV

[15] = molecular target: Induced myeloid leukemia cell differentiation protein Mcl-1 (Homo sapiens, UniProt Q07820); assay type: functional
Induced myeloid leukemia cell differentiation protein Mcl-1, sequence (Q07820 whole entry): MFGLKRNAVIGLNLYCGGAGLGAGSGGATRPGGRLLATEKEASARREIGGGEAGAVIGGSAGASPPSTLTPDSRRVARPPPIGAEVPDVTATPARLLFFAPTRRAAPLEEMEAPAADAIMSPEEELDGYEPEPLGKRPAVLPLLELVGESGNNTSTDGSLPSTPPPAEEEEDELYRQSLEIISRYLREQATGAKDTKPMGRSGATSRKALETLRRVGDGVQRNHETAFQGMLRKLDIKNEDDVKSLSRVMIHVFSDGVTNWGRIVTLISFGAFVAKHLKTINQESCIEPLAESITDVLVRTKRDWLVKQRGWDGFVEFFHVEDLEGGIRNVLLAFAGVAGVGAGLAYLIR

[16] = THP-1 cell cytotoxicity, dose response, cytotoxicity control for Vif-APOBEC3G degradation inhibitor project, THP-1 cells (AID 1117359); assay type: functional; conditions: Human immunodeficiency virus 1, THP-1
[17] = molecular target: T1, Polyadenylate-binding protein 1 (Homo sapiens, UniProt P11940); test: PABP1 MLLE–PAM2 binding inhibitor potency, dose response, biochemical, fluorescence polarization, FITC-PAM2 peptide (AID 602259); assay type: functional; conditions: read-out: IC50_Mean
T1 sequence (P11940 whole entry): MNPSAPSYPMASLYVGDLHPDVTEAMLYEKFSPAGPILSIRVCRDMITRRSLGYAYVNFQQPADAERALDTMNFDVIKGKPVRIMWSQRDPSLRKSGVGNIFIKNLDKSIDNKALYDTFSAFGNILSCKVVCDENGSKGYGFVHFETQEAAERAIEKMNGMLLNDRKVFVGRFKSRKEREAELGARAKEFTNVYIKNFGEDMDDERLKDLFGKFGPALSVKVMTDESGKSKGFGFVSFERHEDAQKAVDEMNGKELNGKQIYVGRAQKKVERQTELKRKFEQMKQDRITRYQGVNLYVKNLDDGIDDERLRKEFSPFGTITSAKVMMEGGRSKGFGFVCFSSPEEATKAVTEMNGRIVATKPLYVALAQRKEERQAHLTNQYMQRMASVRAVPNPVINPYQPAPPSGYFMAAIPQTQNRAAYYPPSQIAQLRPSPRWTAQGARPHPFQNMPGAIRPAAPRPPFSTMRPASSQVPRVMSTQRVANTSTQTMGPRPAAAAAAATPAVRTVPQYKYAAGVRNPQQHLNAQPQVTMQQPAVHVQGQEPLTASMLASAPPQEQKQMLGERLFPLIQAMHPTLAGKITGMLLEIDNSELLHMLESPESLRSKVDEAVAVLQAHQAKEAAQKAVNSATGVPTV

[18] = molecular target: T1, Polyadenylate-binding protein 1; test: PABP1 MLLE–PAM2 interaction inhibitors, dose response, miRNA deadenylation inhibitor project, biochemical, fluorescence polarization, Cy5-PAM2 peptide, secondary (AID 602260); assay type: functional; conditions: read-out: IC50_Mean
[19] = molecular target: Heat shock protein HSP 90-alpha (Homo sapiens, UniProt P07900); assay type: functional, organism-based
[20] = cells
[21] = cytotoxicity in KRAS-transformed pancreatic duct cells, primary screen, cell-based, fluorescence, HTS (AID 431); assay type: functional; conditions: Homo sapiens;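 note: cell line used: HPDE-C7K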
[22] = cytotoxicity in HPDE-C7 cells, cell-based, fluorescence, HTS (AID 430); assay type: functional; conditions: Homo sapiens
[23] = HEp-2 cell cytotoxicity, dose response, cytotoxicity control for RSV inhibitor project, HTS (AID 2410); assay type: functional; conditions: human respiratory syncytial virus
[24] = molecular target: T2, Mannose-6-phosphate isomerase (Homo sapiens, UniProt P34949); test: human PMI inhibitors, high substrate, primary screen, biochemical, fluorescence intensity, high mannose 6-phosphate (AID 1220)
T2 sequence (P34949 whole entry): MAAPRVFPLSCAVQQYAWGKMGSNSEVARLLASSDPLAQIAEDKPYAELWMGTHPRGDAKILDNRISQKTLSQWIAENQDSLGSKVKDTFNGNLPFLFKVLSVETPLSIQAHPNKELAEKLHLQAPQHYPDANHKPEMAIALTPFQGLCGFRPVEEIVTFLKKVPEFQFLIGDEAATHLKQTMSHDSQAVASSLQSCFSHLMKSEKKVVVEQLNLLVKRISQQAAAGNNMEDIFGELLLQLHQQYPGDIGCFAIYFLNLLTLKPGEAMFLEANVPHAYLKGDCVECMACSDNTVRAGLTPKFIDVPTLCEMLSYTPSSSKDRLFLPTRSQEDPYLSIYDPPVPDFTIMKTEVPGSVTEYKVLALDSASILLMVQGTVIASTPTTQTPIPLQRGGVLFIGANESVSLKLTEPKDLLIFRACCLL

[25] = growth suppression of beta-catenin-knockout colon cells, dose response, cell-based, HCT116, human colon tumor (AID 1045); assay type: functional;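 note: HCT116 colon tumor cells with beta catenin knocked out; cells exposed to compound for 60 hours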
[26] = growth suppression of PTEN-null colon cells, dose response, cell-based, HCT116 PTEN knockout (AID 1047); assay type: functional;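 note: HCT116 colon tumor cells with PTEN knocked out; cells exposed to compound for 60 hours before readout; potency for loss of cell viability measured by luminescence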

With `COc1ccc(OC)c(Nc2c3c(nc4ccccc24)CCC3)c1` the EC50 [1] was 0.716 µM (active), the EC50 [2] was 1.18 µM (active) and the EC50 [3] was 0.463 µM (active). The EC50 [4] was 0.804 µM (active), the EC50 [5] was 3.15 µM (active) and the EC50 [6] was 0.432 µM (active). For the same molecule, the EC50 [7] was 12.4 µM (active), the EC50 [8] was 0.355 µM (active) and the EC50 [9] was 3.29 µM (active). The EC50 [10] was 15 µM (inconclusive), the EC50 [11] was < 0.1 µM (active) and the EC50 [12] was 0.284 µM (inconclusive). For the same molecule, the AC50 [13] was 16.2 µM (active).
With `CC1CCc2nn(CC(=O)N3CCCCCC3)cc2C1` (stereo unspecified) the IC50 [14] was > 64 µM (inactive).
In the case of `O=C(/C=C/c1cccs1)N1CCN(c2ccc(O)cc2)CC1`, the IC50 [15] is reported as 5.63 µM (active) and the CC50 [16] is reported as > 40 µM (active).
In the case of `CC(=O)NNC(=O)CN1C(=O)/C(=C/c2ccccc2)SC1=S`, the IC50 [17] is reported as > 66 µM (inactive) and the IC50 [18] is reported as > 66 µM (inactive).
With `Cc1ccc(NC(S)=NCC23C=CC(O2)C2C(=O)N(c4ccc(C)cc4)C(=O)C23)cc1` (stereo unspecified) the AC50 [19] was 4.6 µM (active).
With `COCCCNC(=O)c1ccc(Cn2c(=O)c3ccccc3n(Cc3ccc(C)cc3)c2=O)cc1` the IC50 [20] was 2.98 µM (active).
With `CCCc1cc(-c2[nH]ncc2-c2ccc3c(c2)OCCCO3)c(O)cc1O` the EC50 [21] was 8.05 µM (active) and the EC50 [22] was 8.22 µM (active).
For `O=C(O)c1ccccc1NC(c1ccccc1)c1ccc2cccnc2c1O` (stereo unspecified), the AC50 [19] was 7.23 µM (active).
For `O=C(CNc1cccc(C(F)(F)F)c1)N/N=C/c1cn(-c2ccccc2)nc1-c1ccccc1`, the CC50 [23] was > 50 µM (active) and the IC50 [20] was 19.8 µM (active).
With `c1ccc(-c2noc(-c3ccc4ccccc4c3)n2)cc1` the EC50 [1] was 0.974 µM (active), the EC50 [2] was 0.636 µM (active) and the EC50 [4] was 0.694 µM (inconclusive). For the same molecule, the EC50 [8] was 8.76 µM (active), the EC50 [9] was < 0.1 µM (active) and the EC50 [11] was < 0.1 µM (active).
In the case of `Cc1[nH]n(C2=NCCS2)c(=O)c1N=Nc1ccccc1`, the IC50 [17] is reported as > 66 µM (inactive) and the IC50 [18] is reported as > 66 µM (inactive).
In the case of `O=C(N/N=C/c1ccc(N2CCOCC2)o1)c1cccc([N+](=O)[O-])c1`, the IC50 [24] is reported as > 50 µM (not active).
In the case of `Cc1ccc2[nH]c(C)c(/C=N/Nc3nc4ccccc4s3)c2c1`, the EC50 [5] is reported as 2.24 µM (active), the EC50 [6] is reported as > 60 µM (inconclusive) and the EC50 [25] is reported as 19.7 µM (active). The EC50 [26] was 18 µM (active), the AC50 [19] was 5.3 µM (active) and the CC50 [23] was 14.6 µM (active).
With `COc1ccccc1/C=C/C(=O)NCC(=O)N/N=C(/C)c1ccc(Cl)cc1` the IC50 [20] was 25.4 µM (active).
